# According to publication PMC11783601, “Analogue-Sensitive Inhibition of Histone Demethylases Uncovers Member-Specific Function in Ribosomal Protein Synthesis” (Journal of the American Chemical Society, 2025):
# Entries after “also recorded” stand apart in the source; their conditions may differ.
# Tests used:
# [1] = biological target: T1, MINA (Homo sapiens, UniProt Q8IUF8); test: MALDI-based assay for MINA histidyl hydroxylation of peptide; type: biochemical; details: MALDI-TOF, peptide substrate
# T1 construct: we recombinantly expressed the catalytic domains of 12 wild type dioxygenases; His-TEV (N); host or cells: E. coli BL21 (DE3)
# Experimental: MALDI-based assay for C14orf169 (NO66) and MINA: To monitor the enzymatic activity of
# C14orf169 and MINA recombinant proteins, previous methods were utilized.10-11 Briefly, 10 µM
# each recombinant protein was incubated with 10 µM peptide substrate (NH2-
# Ascorbic Acid, 100 µM Iron (II), 50mM HEPES pH 7.5, and 200 µM L-Leu NOG or equivalent
# volume of water in 10 µL water. Aliquots were kept on ice for 10 minutes before addition of 200
# µM 2OG or equivalent volume of water. After 30-60 minutes incubation at 37 °C, 1 µL sample and
# 1 µL S-DHB matrix were spotted on a MALDI plate and monitored with Bruker FlexControl in
# the reflectron positive mode and analyzed on Bruker FlexAnalysis software. […]
# [2] = biological target: T2, ALKBH2 (Homo sapiens, UniProt Q6NS38); test: Dot blot-based assay for ALKBH2 on genomic DNA; type: biochemical; details: genomic DNA from HEK293T cells, 6 (µM): 100
# T2 construct: we recombinantly expressed the catalytic domains of 12 wild type dioxygenases; 6xHis (N); made in house; host or cells: E. coli BL21 (DE3)
# [3] = biological target: T3, full-length wild type KDM4C (Homo sapiens, UniProt Q9H3R0); test: H3K9me3 Western blot of nuclear extracts of transfected HEK293T cells; type: cell-based
# T3 construct: HEK293T cells were transfected with full-length wild type KDM4B-E or their respective mutants; host or cells: HEK293T
# Source text: (§1) KDM4B and C are structurally homologous to KDM4A, and KDM4D and E have a catalytic pocket near-identical to that of KDM4A but lack the Tudor and PHD domains known to bind trimethylated lysine in histones (Figure 1B).[11] HEK293T cells were transfected with full-length wild type KDM4B-E or their respective mutants. Western blot analysis of nuclear preparations using the H3K9me3 antibody confirmed all of the proteins to be catalytically active (Figures 4G–N and S32–S35).
# (§2) KDM4A mammalian expression plasmid in CMV vector was purchased from Addgene (plasmid #24180). KDM4B mammalian expression plasmid in CMV vector was purchased from Addgene (plasmid #24181). KDM4C mammalian expression plasmid in CMV vector was purchased from Addgene (plasmid #24214). KDM4D mammalian expression plasmid in pReciever vector was purchased from Genecopoia (EX-Z0917-M06.) KDME mammalian expression plasmid in pRP-EXP was designed from Vector Builder. The KDM4A-F185A, KDM4B-F186A, KDM4C -F187A, KDM4D-F189A, and KDM4E F186A mutants were generated using Quikchange Lightening Mutagenesis Kit (Agilent) according to manufacturer’s protocol and confirmed by Sanger […]
# (§3) HEK293T/17 cells (ATCC) were grown in Delbucco’s Modified Eagle Medium (DMEM) (Corning) with 10% FBS at 37 °C (Corning), 5% CO2, and 95% relative humidity in a 6-well cell culture plate. When cells reached 90% confluency, 3 µg of plasmid and 6 µg lipofectamine 2000 (Invitrogen: 11668019) were incubated with 100 µL OptiMem. After 5 minutes the plasmid and lipofectamine were combined and incubated at room temperature for 20 minutes and added to the cell culture disk. Cells were returned to the incubator to grow for 4-6 hours. This was followed by treatment of compound treatment (n-octyl IOX121,22 or a specific NOG ester) at indicated concentrations and further culture for specified time. The media was removed, and cells were washed with ice cold PBS (Corning), then trypsinized with TrpLE Express (Gibco). The trypsinization reaction was quenched with DMEM 10% FBS and cells were pelleted then washed once with ice cold PBS. The nuclear extracts were generated by first resuspending the cell pellets in 700 µL nuclear isolation buffer (15 mM Tris pH 7.5, 60 mM KCl, 15 mM NaCl, 5 mM MgCl2, 1 mM CaCl2, 1mm DTT, 2 mM Na3Van, 250 mM sucrose, 1X Pierce protease inhibitor (Thermo Fisher #PIA32955), 1 mM PMSF, 0.3% NP40 diluted to volume with MilliQ H2O) and incubated on ice for 5 minutes.23 The samples were then pelleted by centrifugation at 2000 rcf for 5 minutes.
# (§4) The supernatant was removed, and the pelleted nuclei were resuspended in 200 µL Pierce IP lysis buffer (Thermo Fisher #87787) containing 1X Pierce protease inhibitor and left on ice for 5 minutes. The nuclei were then sonicated at 100% amp for 5 minutes (pulsed 1 minute “on”, 20 seconds “rest”) using a Qsonica-Q700, cuphorn sonicator. The samples were pelleted once again at 2000 rcf for 5 minutes and the supernatant containing the nuclear extracts were collected. MgCl2 (1M) solution was added to each sample give a final concentration of 6mM. […]
# (§5) Prism with the corresponding bars representing the mean and standard deviation of the population.
# (§6) For the time dependent imaging, cells containing the transfected KDM4A mutant were identified by their HA signal. These cells were used to create a selection which was then imposed onto the respective H3K9me3 or BrdU images. The mean signal was then measured for H3K9me3 or BrdU only within the cells expressing the KDM4A mutant. To compare changes in H3K9me3 or BrdU between trials, the quantification values were normalized to the mean signal at t=0. The normalized, mean signal and error for H3K9me3 or BrdU were then plotted in GraphPad Prism.
# (§7) 21. General protocol for Western blotting
# (§8) Assay samples were mixed with appropriate volume of 4X Laemmli Dye (Bio-Rad), heated at 95 °C for 5 minutes and loaded onto 4–12% Criterion™ XT Bis-Tris protein gels (Bio-Rad #3450123) or in-house prepared SDS-polyacrylamide gel and subjected to electrophoresis […]
# [4] = biological target: T4, full-length wild type KDM4E (Homo sapiens, UniProt B2RXH2); test: as above; type: cell-based
# T4 construct: HEK293T cells were transfected with full-length wild type KDM4B-E or their respective mutants; host or cells: HEK293T
# Source text: as §1, §2, §3, §4, §5, §6, §7, §8
# [5] = biological target: T5, full-length wild type KDM4B (Homo sapiens, UniProt O94953); test: as above; type: cell-based; details: n-octyl IOX1 10 μM
# T5 construct: HEK293T cells were transfected with full-length wild type KDM4B-E or their respective mutants; host or cells: HEK293T
# Source text: as §1, §2, §3, §4, §5, §6, §7, §8
# [6] = biological target: T6, full-length wild type KDM4D (Homo sapiens, UniProt Q6B0I6); test: as above; type: cell-based
# T6 construct: HEK293T cells were transfected with full-length wild type KDM4B-E or their respective mutants; host or cells: HEK293T
# Source text: as §1, §2, §3, §4, §5, §6, §7, §8
# T3 sequence (Q9H3R0 whole entry): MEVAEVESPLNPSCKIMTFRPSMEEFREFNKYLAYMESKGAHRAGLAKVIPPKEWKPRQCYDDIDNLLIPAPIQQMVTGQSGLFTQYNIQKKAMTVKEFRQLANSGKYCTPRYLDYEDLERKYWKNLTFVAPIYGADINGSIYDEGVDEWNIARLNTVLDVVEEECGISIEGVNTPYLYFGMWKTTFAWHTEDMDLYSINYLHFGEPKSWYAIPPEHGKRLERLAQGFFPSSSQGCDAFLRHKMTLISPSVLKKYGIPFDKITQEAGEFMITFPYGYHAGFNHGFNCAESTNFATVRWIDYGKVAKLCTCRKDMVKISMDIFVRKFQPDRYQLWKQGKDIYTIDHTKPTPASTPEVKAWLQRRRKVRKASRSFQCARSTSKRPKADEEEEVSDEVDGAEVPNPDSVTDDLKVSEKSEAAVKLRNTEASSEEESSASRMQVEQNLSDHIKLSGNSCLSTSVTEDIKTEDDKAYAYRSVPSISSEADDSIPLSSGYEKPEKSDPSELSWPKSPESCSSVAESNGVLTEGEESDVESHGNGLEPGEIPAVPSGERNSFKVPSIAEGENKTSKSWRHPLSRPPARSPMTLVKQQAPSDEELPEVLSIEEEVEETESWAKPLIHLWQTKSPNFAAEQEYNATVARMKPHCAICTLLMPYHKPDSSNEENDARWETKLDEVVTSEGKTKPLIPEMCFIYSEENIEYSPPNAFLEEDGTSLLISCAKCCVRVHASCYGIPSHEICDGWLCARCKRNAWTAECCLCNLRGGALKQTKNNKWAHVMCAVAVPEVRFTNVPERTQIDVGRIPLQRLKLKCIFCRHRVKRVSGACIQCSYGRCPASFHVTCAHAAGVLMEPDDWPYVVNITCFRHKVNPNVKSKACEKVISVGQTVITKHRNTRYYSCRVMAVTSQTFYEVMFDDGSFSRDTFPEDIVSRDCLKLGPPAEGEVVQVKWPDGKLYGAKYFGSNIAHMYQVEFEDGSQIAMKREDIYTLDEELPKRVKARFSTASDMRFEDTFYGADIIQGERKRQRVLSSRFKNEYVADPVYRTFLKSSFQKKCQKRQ
# T6 sequence (Q6B0I6 whole entry): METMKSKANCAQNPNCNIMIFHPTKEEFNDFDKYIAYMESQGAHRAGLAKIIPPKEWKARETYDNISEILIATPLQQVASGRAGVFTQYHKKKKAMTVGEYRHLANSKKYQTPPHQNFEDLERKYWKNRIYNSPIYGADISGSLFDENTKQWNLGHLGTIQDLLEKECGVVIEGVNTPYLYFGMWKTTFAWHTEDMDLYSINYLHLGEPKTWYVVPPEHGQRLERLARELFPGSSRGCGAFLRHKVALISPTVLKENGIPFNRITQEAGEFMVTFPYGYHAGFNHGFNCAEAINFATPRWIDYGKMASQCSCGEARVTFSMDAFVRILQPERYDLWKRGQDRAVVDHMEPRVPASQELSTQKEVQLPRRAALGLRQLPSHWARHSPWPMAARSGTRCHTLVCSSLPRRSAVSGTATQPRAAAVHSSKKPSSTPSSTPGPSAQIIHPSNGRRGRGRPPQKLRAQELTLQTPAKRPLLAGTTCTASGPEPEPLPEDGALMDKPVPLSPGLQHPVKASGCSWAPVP
# T4 sequence (B2RXH2 whole entry): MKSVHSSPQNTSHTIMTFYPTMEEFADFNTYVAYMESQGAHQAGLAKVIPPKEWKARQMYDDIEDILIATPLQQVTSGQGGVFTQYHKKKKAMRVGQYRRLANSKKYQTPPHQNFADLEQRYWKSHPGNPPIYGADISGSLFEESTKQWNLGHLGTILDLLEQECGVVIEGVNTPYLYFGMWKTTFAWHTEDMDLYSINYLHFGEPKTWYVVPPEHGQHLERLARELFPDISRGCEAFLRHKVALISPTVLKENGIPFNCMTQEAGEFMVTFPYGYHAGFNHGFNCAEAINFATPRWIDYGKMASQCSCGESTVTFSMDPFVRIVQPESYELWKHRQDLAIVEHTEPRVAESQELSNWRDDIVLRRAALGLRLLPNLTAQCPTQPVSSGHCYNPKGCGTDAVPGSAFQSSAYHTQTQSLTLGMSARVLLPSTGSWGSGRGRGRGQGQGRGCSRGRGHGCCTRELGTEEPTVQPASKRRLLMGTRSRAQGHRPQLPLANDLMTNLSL
# T5 sequence (O94953 whole entry): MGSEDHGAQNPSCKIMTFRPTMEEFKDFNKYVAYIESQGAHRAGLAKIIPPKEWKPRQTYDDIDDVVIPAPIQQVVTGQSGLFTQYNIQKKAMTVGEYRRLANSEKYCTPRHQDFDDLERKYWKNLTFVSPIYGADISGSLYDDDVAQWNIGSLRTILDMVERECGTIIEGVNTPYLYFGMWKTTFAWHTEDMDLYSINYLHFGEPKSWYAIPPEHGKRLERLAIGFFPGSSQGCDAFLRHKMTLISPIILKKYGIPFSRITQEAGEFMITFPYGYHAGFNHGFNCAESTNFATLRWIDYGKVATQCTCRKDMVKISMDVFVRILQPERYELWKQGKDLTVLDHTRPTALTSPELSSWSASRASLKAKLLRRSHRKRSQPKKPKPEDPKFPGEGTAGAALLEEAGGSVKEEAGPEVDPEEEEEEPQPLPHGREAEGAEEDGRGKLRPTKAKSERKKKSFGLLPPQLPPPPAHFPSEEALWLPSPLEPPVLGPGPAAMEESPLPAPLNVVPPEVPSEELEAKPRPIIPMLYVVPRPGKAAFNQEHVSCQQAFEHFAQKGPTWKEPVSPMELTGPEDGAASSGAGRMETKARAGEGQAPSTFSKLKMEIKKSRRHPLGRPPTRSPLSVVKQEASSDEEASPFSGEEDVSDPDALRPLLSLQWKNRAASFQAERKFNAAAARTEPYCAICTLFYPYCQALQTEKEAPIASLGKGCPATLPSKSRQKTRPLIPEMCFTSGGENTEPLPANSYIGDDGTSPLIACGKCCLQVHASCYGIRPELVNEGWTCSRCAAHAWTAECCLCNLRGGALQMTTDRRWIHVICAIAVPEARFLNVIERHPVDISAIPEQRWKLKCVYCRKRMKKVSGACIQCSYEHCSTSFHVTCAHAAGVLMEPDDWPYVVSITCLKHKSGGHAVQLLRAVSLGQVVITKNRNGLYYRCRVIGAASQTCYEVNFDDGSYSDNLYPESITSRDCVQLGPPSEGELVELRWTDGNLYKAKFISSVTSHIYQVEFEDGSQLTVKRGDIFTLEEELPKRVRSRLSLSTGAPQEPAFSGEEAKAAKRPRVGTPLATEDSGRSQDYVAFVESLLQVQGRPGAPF
# T1 sequence (Q8IUF8 139-271 limits assumed): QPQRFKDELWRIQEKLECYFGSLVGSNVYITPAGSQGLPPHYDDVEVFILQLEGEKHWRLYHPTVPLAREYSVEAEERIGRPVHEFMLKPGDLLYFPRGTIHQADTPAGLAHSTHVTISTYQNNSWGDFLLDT
# T2 sequence (Q6NS38 152-257 limits assumed): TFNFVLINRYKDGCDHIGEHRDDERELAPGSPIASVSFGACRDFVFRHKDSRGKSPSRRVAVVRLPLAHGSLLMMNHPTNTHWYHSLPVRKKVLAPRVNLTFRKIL
smiles,measurement,setting,value
"CC(C)CC(NC(=O)C(=O)O)C(=O)O (stereo not drawn) [compound 6, N-oxalyl leucine]",inhibition of MINA,[1],No inhibition
same,inhibition of ALKBH2,[2],No inhibition
CCCCCCCCOC(=O)c1ccc(O)c2ncccc12 [n-octyl IOX1],inhibition of wild type KDM4C H3K9me3 demethylation,[3],Dose-dependent inhibition; also recorded: significantly reduced
same,inhibition of wild type KDM4E H3K9me3 demethylation,[4],Dose-dependent inhibition; also recorded: significantly reduced
same,inhibition of wild type KDM4B H3K9me3 demethylation,[5],Dose-dependent inhibition; also recorded: significantly reduced
same,inhibition of wild type KDM4D H3K9me3 demethylation,[6],Dose-dependent inhibition; also recorded: significantly reduced
